# Read-outs that look alike come from different tables or passages of the source. Square brackets hold non-standard residues; d marks the D form. Peptide text beside a SMILES is read from it.
# What was measured:
# DENV2 [1] = assay: Pre-binding FFU assay (reversibility of peptide binding); type: cell-based, dengue virus
# Method: Experiments were conducted further to characterize observed inhibitory effects and determine whether these may have been due to unintended interference owing to modifications of target LLC-MK2 cell surfaces. RI57 was incubated with target cells for 1 h at 4° C., the monolayer cells were then rinsed with PBS, and approximately 200 FFU of DENV2 allowed to infect the cells at 4° C. Agarose overlays, incubation, and immunological detection tests were conducted as described above for the focus-forming assay.
# In this assay, DN57 or RI57 was added to target cells for 1 h prior to infection with DENV2 to determine whether these peptides inhibit entry through interaction directly with target cells. […] Table 5. (and also FIG. 7) presents results showing that peptide binding can be reversible. (and FIG. 5.). Introducing a step diluting the concentration of peptide 10-fold after incubating/1 h at 20° C. and then infecting immediately thereafter reverses this inhibition. Errors around the means are depicted as ±sd.
# trypsin = details: peptide incubated in trypsin at 37° C. before adding STI
# Method: The image documents 10-20% gradient gels run electrophoretically (e-gel), labeled with Imperial Protein Stain, and photographed. An e-gel was performed for each peptide, stained with Imperial stain, and photographed. The arrow markers show both the identity of the peptide run and its final location after migration. For each peptide assessment, lanes 1 contain peptide alone; lanes 2, peptide plus soybean trypsin inhibitor (STI); and lanes 3, peptide incubated in trypsin at 37° C. before adding STI.
# DENV2 [2] = assay: qRT-PCR virus-binding assay; type: cell-based, dengue virus
# Method: Further to characterize DENV binding to host cells, experiments were conducted to analyze the first step in the process of infection. Infection of LLC-MK2 target cells in six-well plates was executed in duplicate using 10^5 FFU of DENV2 pre-incubated 45 min at 4° C. with either DN57, or RI57 peptide, or pooled heterotypic anti-DENV human serum. Following said 45 min exposure at 4° C., infected monolayers were washed with PBS and harvested by cell scraping, added to a 1.5 ml microfuge tube containing 350 μl AR-200 silicone oil (Sigma-Aldrich, St. Louis, Mo.), mixed with 150 μl silicone fluid (Thomas, Swedesboro, N.J.), and microfuge spun 1 min at 14,000 rpm to separate unbound virus from cell-bound virus. The tubes were then submerged in liquid nitrogen for 30 sec to freeze the contents. The cell pellets with (or without) bound virus were recovered by removing the bottoms of the tubes with small wire clippers and placing them in 15 ml conical tubes. By means of the Qiagen Viral RNA Extraction Kit (Qiagen, Chatsworth, Calif.), viral RNA was extracted from cell pellets.
# Using the Quantitect SYBR Green RT-PCR kit (Qiagen Inc., Chatsworth, Calif.), qRT-PCR was performed on the extracted RNA. Manufacturer's specifications and amplification protocols were followed utilizing dengue-specific primers: (DenF: 5-[…]-3 and DenR: 5-[…]-3). […] The following amplification protocol was used: 50° C. for 20 min to reverse transcribe the RNA; 95° C. for 15 min to activate the HotStart Taq DNA Polymerase; 45 PCR cycles: 94° C. for 15 sec; 50° C. for 15 sec; 72° C. for 30 sec; and fluorescence data acquisition was the final step. […]
# To test whether DN57 and RI57 interfere directly with virus binding to target cells, binding assays were conducted using qRT-PCR to monitor attachment of virus to target cells. […] RNA was then extracted from the cell pellets and amplified with DENV2-specific primers to quantitate the presence of virus. […]
# DENV2 [3] = assay: Post-binding FFU assay; type: cell-based, dengue virus; details: DN57 added after virus bound at 4° C.; data not shown, see Costin, et al., 2010
# Method: Experiments were conducted further to characterize observed inhibitory effects as to whether these may have been due to interference with interactions occurring pre-binding, versus post-binding, of virions and LLC-MK2 target cells. An estimated 200 FFU of DENV2 were allowed to interact with target cells for 1 h at 4° C., permitting binding while preventing internalization. Unbound virus was washed off with PBS at 4° C., DN57 added, and the cultures incubated at 4° C. for 1 h, again washed in 4° C. PBS, and then warmed to 37° C. Finally, agarose overlays, incubation, and immunological detection assays were performed as described for the focus-forming assay.
# Inasmuch as it was determined that inhibition by DN57 occurs at a viral-entry step, whether infection could still be inhibited after virus had bound to the surface of target cells was tested. In these experiments, virus was allowed to bind to cells at 4° C., then treated with increasing concentrations of DN57 before warming the cells to 37° C. providing conditions in favor of viral progression.
# DENV2 [4] = assay: Post-entry FFU assay; type: cell-based, dengue virus; details: any DN57 concentration; data not shown, see Costin, et al., 2010
# Method: Experiments were conducted further to characterize observed inhibitory effects to determine whether they actually may have been due to interference with post-entry steps in the viral life cycle. To this end, approximately 200 FFU of DENV2 (without DN57) were allowed the opportunity to bind and then enter target LLC-MK2 cells for 1 h at 37° C. as described for the focus-forming assay. Any unbound virus was then removed by rinsing with PBS. Next, DN57 was added to the cells post-entry for 1 h at 37° C. Cultures again were washed with PBS and agarose overlays, incubation, and immunological detection assessments were performed as described for the focus-forming assay.
# DENV2 [5] = assay: LLC-MK2 FFU assay after trypsin exposure of peptide; type: cell-based, dengue virus
# Method: Table 7. […] The peptides were exposed to trypsin for ten minutes at 37° C. before STI was added and further incubated ten minutes. The resulting peptide, in each case, was incubated with DENV2 for 1 hour at 20° C. and then this preparation used to infect confluent LLC-MK2 monolayers.
# in vitro = details: rhesus monkey, LLC-MK2 cells (confluent monolayers)
# Method: Possible direct cytotoxicity caused by peptide exposure to proliferating LLC-MK2 monolayers was measured using the TACS™ MTT cell proliferation assay (R&D Systems, Inc., Minneapolis, Minn.) according to the manufacturer's instructions. The MTT assay detects and measures mitochondrial reductase activity observable in viable cells. […] A Tecan GeniosPro plate reader (Tecan US, Durham, N.C.) was used to measure absorbance at 560 nm.
# Error bars show ±standard deviations (±sd) of the means with an asterisk indicating instances of statistically-significant differences from control according to Dunnett's post hoc test (p<0.05).
# [6] = 1:2 dilution of NHS, 37° C., 24 h
# Method: Lane 1 contains peptide alone/time=0; lane 2, peptide at 37° C./time=24 h; lane 3, peptide in a 1:2 dilution of NHS/time=0; lane 4, peptide in a 1:2 dilution of NHS @ 37° C./time=24 h; and lane 5, a 1:2 dilution of NHS with no peptide at 37° C./time=24 h.
# DENV2 [7] = tested on: DENV2
# Method: (§1) Twenty-four hours prior to infection, LLC-MK2 target cells were seeded at a density of 1.0×10^5 cells per well of an E-well plate. Approximately 200 FFU of virus were incubated with or without peptides in serum-free DMEM for 1 h at 20° C. Virus/peptide or virus/control mixtures were allowed to infect confluent target cell monolayers for 1 h at 37° C., rocking every 15 min, after which time the medium was aspirated and monolayers overlaid with fresh DMEM plus v/v 10% FBS containing v/v 0.85% Sea-Plaque Agarose (Cambrex Bio Science, Rockland, Me.). To allow proper setting, monolayers with agar overlays were incubated 20 min at 4° C. Next, infected cells were incubated at 37° C. with 5% CO2 for three days (DENV1, -3, and -4) or five days (DENV2). Then, infected cultures were fixed with 10% formalin overnight at 4° C., permeabilized with v/v 70% ethanol for 20 min, and rinsed with phosphate-buffered saline, pH 7.4 (PBS) prior to immunostaining. Viral foci were detected and enumerated using supernatant from mouse anti-DENV hybridoma E60 (obtained from the Department of Pathology & Immunology, Washington University, St. Louis, Mo.) followed by horseradish peroxidase-conjugated goat anti-mouse immunoglobulin (Pierce, Rockford, Ill.) and developed using AEC chromogen substrate (Dako, Carpinteria, Calif.). Results have been expressed as an average of two independent trials (at least) with three replicates each.
# DENV2 [8] = details: as previously observed; cited from earlier work
# Method for DENV1: as §1
# Method for DENV3: as §1
# Method for DENV4: as §1
compound,measurement,setting,value
"CSCC[C@H](NC(=O)[C@H](Cc1c[nH]c2ccccc12)NC(=O)[C@@H](N)CCCNC(=N)N)C(=O)N[C@H](C(=O)N[C@@H](Cc1c[nH]c2ccccc12)C(=O)N[C@@H](CCCNC(=N)N)C(=O)N[C@@H](Cc1c[nH]cn1)C(=O)N[C@@H](Cc1c[nH]c2ccccc12)C(=O)N[C@@H](Cc1ccccc1)C(=O)N[C@@H](Cc1c[nH]cn1)C(=O)N[C@@H](CCCNC(=N)N)C(=O)N[C@@H](CC(C)C)C(=O)N[C@@H](CCCNC(=N)N)C(=O)N[C@@H](CC(C)C)C(=O)N1CCC[C@H]1C(=O)N[C@@H](Cc1ccc(O)cc1)C(=O)N[C@@H](CC(N)=O)C(=O)N1CCC[C@H]1C(=O)NCC(=O)N[C@@H](CCCCN)C(=O)N[C@@H](CC(N)=O)C(=O)N[C@@H](CCCCN)C(=O)N[C@@H](CCC(N)=O)C(=O)N[C@@H](CC(N)=O)C(=O)N[C@@H](CCC(N)=O)C(=O)N[C@@H](CCC(N)=O)C(=O)N[C@@H](Cc1c[nH]c2ccccc12)C(=O)N1CCC[C@H]1C(=O)O)C(C)C [DN57, reference compound] (H-RWMVWRHWFHRLRLPYNPGKNKQNQQWP-OH; N-terminus and C-terminus assumed)",% DENV2 Infection Inhibition,"DENV2 [1]; PBS Rinse (text: peptide diluted 10-fold after incubation, then infecting)",−2.8%
same,% DENV2 Infection Inhibition,"DENV2 [1]; incubation with 10 μM/1 h at 20° C., no rinse",83.1%
same,inhibition on treatment of target cells with peptide prior to DENV2 infection,DENV2 [1]; peptide added to target cells for 1 h prior to infection,no evidence of inhibition
same,trypsin cleavage (e-gel),trypsin,degraded
same,% Infection Inhibition,DENV2 [2]; DENV2 + 20 uM peptide,96.4%
same,% Infection Inhibition,DENV2 [2]; DENV2 + 20 uM peptide + Trypsin + STI,5.2%
same,binding of virus to cells,DENV2 [2]; virus co-incubated with peptide 45 min at 4° C.,inhibit binding of virus to cells
same,"DENV-2 infection after virus binding to cells, before entry",DENV2 [3],inhibits DENV-2 infection
same,viral replication when peptide added post-entry,DENV2 [4],no inhibition of viral replication was observed
same,% Infection Inhibition,DENV2 [5]; DENV2 + 20 uM peptide,96.4%
same,% Infection Inhibition,DENV2 [5]; DENV2 + 20 uM peptide + Trypsin + STI (trypsin ten minutes at 37° C.),5.2%
same,DENV2 inhibitory activity after trypsin exposure,DENV2 [5]; trypsin ten minutes at 37° C. before STI,did not
same,"viability at 24 h, 0.1 µM",in vitro,100%
same,"viability at 24 h, 0.5 µM",in vitro,98.6%
same,"viability at 24 h, 1 µM",in vitro,100%
same,"viability at 24 h, 5 µM",in vitro,97.8%
same,"viability at 24 h, 10 µM",in vitro,95.9%
same,"viability at 24 h, 15 µM",in vitro,92.8%
same,"viability at 24 h, 20 µM",in vitro,76.4%
same,"viability at 24 h, 25 µM",in vitro,80.2%
same,"viability at 24 h, 30 µM",in vitro,54.7%
same,"viability at 24 h, 35 µM",in vitro,55.1%
same,"viability at 24 h, 40 µM",in vitro,50.6%
same,degradation in normal human serum (e-gel),[6],absent
CSCC[C@@H](NC(=O)[C@H](NC(=O)[C@@H](Cc1c[nH]c2ccccc12)NC(=O)[C@@H](CCCNC(=N)N)NC(=O)[C@@H](Cc1c[nH]cn1)NC(=O)[C@@H](Cc1c[nH]c2ccccc12)NC(=O)[C@@H](Cc1ccccc1)NC(=O)[C@@H](Cc1c[nH]cn1)NC(=O)[C@@H](CCCNC(=N)N)NC(=O)[C@@H](CC(C)C)NC(=O)[C@@H](CCCNC(=N)N)NC(=O)[C@@H](CC(C)C)NC(=O)[C@H]1CCCN1C(=O)[C@@H](Cc1ccc(O)cc1)NC(=O)[C@@H](CC(N)=O)NC(=O)[C@H]1CCCN1C(=O)CNC(=O)[C@@H](CCCCN)NC(=O)[C@@H](CC(N)=O)NC(=O)[C@@H](CCCCN)NC(=O)[C@@H](CCC(N)=O)NC(=O)[C@@H](CC(N)=O)NC(=O)[C@@H](CCC(N)=O)NC(=O)[C@@H](CCC(N)=O)NC(=O)[C@@H](Cc1c[nH]c2ccccc12)NC(=O)[C@H]1CCCN1)C(C)C)C(=O)N[C@H](Cc1c[nH]c2ccccc12)C(=O)N[C@H](CCCNC(=N)N)C(=O)O [RI57] (H-[dP][dW][dQ][dQ][dN][dQ][dK][dN][dK]G[dP][dN][dY][dP][dL][dR][dL][dR][dH][dF][dW][dH][dR][dW][dV][dM][dW][dR]-OH; N-terminus and C-terminus assumed),% Inhibition DENV3,DENV3; 0.1 uM peptide,15.1%
same,% Inhibition DENV3,DENV3; 0.5 uM peptide,3.3%
same,% Inhibition DENV3,DENV3; 1.0 uM peptide,−73.1%
same,% Inhibition DENV3,DENV3; 5.0 uM peptide,−9.7%
same,% Inhibition DENV3,DENV3; 10.0 uM peptide,63.3%
same,% Inhibition DENV3,DENV3; 20.0 uM peptide,90.1%
same,IC50,"DENV3; DENV3, sigmoidal curve-fitting to dose-response curve",5.9 µM
same,% Inhibition DENV1,DENV1; 0.1 uM peptide,2.4%
same,% Inhibition DENV1,DENV1; 0.5 uM peptide,16.2%
same,% Inhibition DENV1,DENV1; 1.0 uM peptide,−43.6%
same,% Inhibition DENV1,DENV1; 5.0 uM peptide,63.8%
same,% Inhibition DENV1,DENV1; 10.0 uM peptide,97.3%
same,% Inhibition DENV1,DENV1; 20.0 uM peptide,100.0%
same,IC50,"DENV1; DENV1, sigmoidal curve-fitting to dose-response curve",4.6 µM
same,% Inhibition DENV2,DENV2 [7]; 0.1 uM peptide,6.2%
same,% Inhibition DENV2,DENV2 [7]; 0.5 uM peptide,−1.7%
same,% Inhibition DENV2,DENV2 [7]; 1.0 uM peptide,−5.9%
same,% Inhibition DENV2,DENV2 [7]; 5.0 uM peptide,4.3%
same,% Inhibition DENV2,DENV2 [7]; 10.0 uM peptide,69.8%
same,% Inhibition DENV2,DENV2 [7]; 20.0 uM peptide,97.8%
same,IC50,"DENV2 [7]; DENV2, sigmoidal curve-fitting to dose-response curve",7.4 µM
same,trypsin cleavage (e-gel),trypsin,resistant to trypsin cleavage
same,% Inhibition DENV4,DENV4; 0.1 uM peptide,18.9%
same,% Inhibition DENV4,DENV4; 0.5 uM peptide,−0.7%
same,% Inhibition DENV4,DENV4; 1.0 uM peptide,−11.8%
same,% Inhibition DENV4,DENV4; 5.0 uM peptide,−41.8%
same,% Inhibition DENV4,DENV4; 10.0 uM peptide,55.5%
same,% Inhibition DENV4,DENV4; 20.0 uM peptide,94.4%
same,"viability at 24 h, 0.1 µM",in vitro,95.9%
same,"viability at 24 h, 0.5 µM",in vitro,96.5%
same,"viability at 24 h, 1 µM",in vitro,95%
same,"viability at 24 h, 5 µM",in vitro,95.9%
same,"viability at 24 h, 10 µM",in vitro,95.3%
same,"viability at 24 h, 15 µM",in vitro,100%
same,"viability at 24 h, 20 µM",in vitro,101%
same,"viability at 24 h, 25 µM",in vitro,101%
same,"viability at 24 h, 30 µM",in vitro,104%
same,"viability at 24 h, 35 µM",in vitro,94.3%
same,"viability at 24 h, 40 µM",in vitro,92%
same,degradation in normal human serum (e-gel),[6],remains completely intact
heparin sulfate,binding of dengue virus to cells (control),DENV2 [8],dramatically reduces binding of dengue virus to cells
